In patent US20210317090A1, “AMINO ACID DEPLETION AGENTS AS ANTIPROLIFERATIVE AGENTS” (University of Central Florida Research Foundation, Inc., priority 2018, published 2021):

Legend:
L3.6pl cells [1] = assay: Intracellular polyamine and Ant-44 levels (N-dansylation, HPLC) in L3.6pl cells; type: cell-based, human; settings: for Intracellular Putrescine / Intracellular Spermidine / Intracellular Spermine / Intracellular Total Polyamines: 72 hr
Experimental: One explanation for the enhanced potency was that compound 10 (1666.255) increased polyamine import and, as a result, may have increased intracellular Ant-44 levels. To test this hypothesis, L3.6pl cells were dosed with a fixed concentration of Ant-44 (2 μM) alone and in combination with increasing concentrations of compound 10 (1666.255) to explore how this combination therapy affected intracellular polyamine pools and Ant-44 import.
FIG. 7 is an example according to various embodiments, illustrating both single and combination therapies in L3.6pl cells with Ant-44 and compound 10 (1666.255) after 72 h incubation. Polyamine and Ant-44 levels (expressed as nmoles/mg protein) and relative % viability versus an untreated control were observed after 72 h incubation at 37° C. The untreated control was run in parallel and polyamine levels determined in duplicate and % cell viability in triplicate. Ant-44 was dosed at a fixed concentration of 2 μM and compound 10 (1666.255) at increasing concentrations. Cell viability tracked well with total intracellular polyamine levels (sum of putrescine, spermidine and spermine).
It was concluded that compound 10 was neither acting as a PTI nor as a polyamine import agonist. How then could it lead to intracellular polyamine depletion? […] To test this hypothesis, L3.6pl cells were dosed with increasing concentrations of compound 10 (1666.255) without Ant44. If compound 10 (1666.255) was acting on polyamine pools, one should see a reduction in total polyamine levels as well as decreased cell viability in a dose dependent manner upon increasing levels of 10. Therefore, the toxicity of compound 10 and intracellular polyamine levels after 72 h exposure to 10 were measured (FIG. 8).
FIG. 8 is an example according to various embodiments, illustrating intracellular polyamine levels (expressed as nmoles polyamine/mg protein) in L3.6pl cells dosed with increasing concentrations of compound 10 (1666.255) after cells were incubated for 72 h at 37° C. The untreated control was run in parallel and polyamine levels determined in duplicate via N-dansylation and HPLC. The data was averaged and reported as nmol polyamine (PA)/mg protein.
This example illustrates aspects according to various embodiments pertaining to a 72 h experiment with Compound 10 in L3.6pl cells. Ten milliliters of a cell suspension containing L3.6pl human pancreatic cancer cells (50,000 cells/mL) and aminoguanidine (1 mM) were placed in treated plastic Petri dishes (d=9 cm) and incubated overnight at 37° C. After 24 h, the cells were dosed with compound 10 at 2 μM, 5 μM, or 7 μM. (Note: Stock solutions of 10 at 2, 5, and 7 mM were dissolved in phosphate buffered saline (PBS) and were filtered through a 0.2 μm filter prior to use. The experiments were maintained with a total volume of 10.01 mL where 10 mL of the cell suspension was placed in a plastic dish and each compound or the equivalent PBS volume was added to make up the total volume 10.01 mL for each dish. For example, for the control experiment PBS (10 μL) was added to make up the total volume (10 mL+10 μL=10.01 mL). After 72 h incubation, the cells were collected first by pipetting off the supernatant containing floating dead cells from the culture dish as well as media and placing them into 15 mL tubes. The supernatant containing floating cells was centrifuged (4 min at 1,000 rpm). The cell-free supernatant (supernatant #1) was collected into a new 15 mL tube and quantified (˜8.6 mL) and was then stored frozen and was later quantified by LCMS to investigate the media composition of particular polyamine and amino acid analytes. The attached cells on the dish were washed with PBS (5 mL). The PBS wash was removed by suction and additional PBS (2 mL) was added and again suctioned off to provide twice-washed cells still adhered to the dish. Trypsin (2 mL) was then added to each dish and incubated (3-5 min) until all the cells were detached. Fresh media (8 mL) was added to quench the trypsin. […]

L3.6pl cells [2] = assay: Rescue by exogenous native polyamines in L3.6pl cells; type: cell-based, human; settings: 72 h, polyamine 1 μM or 5 μM, compound 10 at toxic dose (5 μM or higher)
Experimental: The question remained as to whether exogenous polyamines could enter and ‘rescue’ the cells back to the growth rate of untreated control. A series of experiments were conducted to determine if cells treated with compound 10 could be rescued by exogenous polyamines. To test this hypothesis, L3.6pl cells were incubated for 72 h with an increasing dose of compound 10 and a dose of one of the native polyamines (putrescine, spermidine, or spermine either at a fixed dose of 1 μM or 5 μM).
FIG. 10A is an example according to various embodiments, illustrating the inability of native polyamine putrescine (Put at 1 μM and 5 μM) to rescue L3.6pl cells treated with compound 10 (e.g., from 2-15 μM). FIG. 10B is an example according to various embodiments, illustrating inability of native polyamine spermidine (Spd at 1 μM and 5 μM) to rescue L3.6pl cells treated with compound 10 (e.g., from 2-15 μM). FIG. 10C is an example according to various embodiments, illustrating inability of the native polyamine spermine (Spm at 1 μM and 5 μM) to rescue L3.6pl cells treated with compound 10 (2-15 μM). The L3.6pl cells were incubated with 250 μM aminoguanidine (AG) for 24 h prior to the addition of compound 10, followed by 72 h incubation at 37° C. […]

With `CC(C)CCN1CCN(C(CNCc2ccccc2)CC2CCCCC2)CC1CC(C)C.Cl.Cl.Cl` (centres unmarked) [Compound 10, Benzyl-{3-cyclohexyl-2-[3-isobutyl-4-(3-methyl-butyl)-piperazin-1-yl]-propyl}-amine trihydrochloride salt] the “Intracellular Putrescine” value (L3.6pl cells [1]; 2 μM) was 6.2 ± 0.7 nmol polyamine/mg protein, the “Intracellular Spermidine” value (L3.6pl cells [1]; 2 μM) was 27.1 ± 2.4 nmol polyamine/mg protein and the “Intracellular Spermine” value (L3.6pl cells [1]; 2 μM) was 16.1 ± 0.0 nmol polyamine/mg protein. For the same compound, the “Intracellular Total Polyamines” value (L3.6pl cells [1]; 2 μM) was 49.5 ± 3.1 nmol polyamine/mg protein, the “Intracellular Putrescine” value (L3.6pl cells [1]; 5 μM) was 6.0 ± 0.9 nmol polyamine/mg protein and the “Intracellular Spermidine” value (L3.6pl cells [1]; 5 μM) was 17.6 ± 1.8 nmol polyamine/mg protein. The “Intracellular Spermine” value (L3.6pl cells [1]; 5 μM) was 14.9 ± 1.1 nmol polyamine/mg protein, the “Intracellular Total Polyamines” value (L3.6pl cells [1]; 5 μM) was 38.5 ± 3.4 nmol polyamine/mg protein and the “Intracellular Putrescine” value (L3.6pl cells [1]; 7 μM) was 5.9 ± 0.3 nmol polyamine/mg protein. The “Intracellular Spermidine” value (L3.6pl cells [1]; 7 μM) was 15.6 ± 0.1 nmol polyamine/mg protein, the “Intracellular Spermine” value (L3.6pl cells [1]; 7 μM) was 12.7 ± 0.6 nmol polyamine/mg protein and the “Intracellular Total Polyamines” value (L3.6pl cells [1]; 7 μM) was 34.2 ± 0.9 nmol polyamine/mg protein. The “intracellular level of Ant-44” value (L3.6pl cells [1]; Ant-44 2 μM with compound 10 at 1 μM, 72 h) was 2.08 nmol Ant44/mg protein and the “rescue of treated cells by putrescine, spermidine or spermine” value (L3.6pl cells [2]) was “none of the three native polyamines (at 1 μM or 5 μM) were able to rescue”.
